Molecular target: Adenosine A2A receptor (Homo sapiens, UniProt P29274)
Experiment: cAMP assay in 293A cells stably expressing the adenosine A2A receptor (CGS21680 stimulation, HTRF)
Assay type: cell-based
Design: expressed in transfected cells; host or cells: 293A cells (Invitrogen, Cat# R705-07) infected with A2A-expressing lentivirus (custom packaged by Biosettia), puromycin selected
Details: 293A-A2AR cells, 0.1% BSA, 1 uM CGS; read-out: cAMP (nM) 0.1% BSA, 1 uM CGS
Procedure: A 293A cell line (Invitrogen, Cat# R705-07) stably expressing the adenosine A2A receptor was generated in house. Briefly, 293A cells were seeded in 6-well plate and infected with A2A expressing lentivirus (custom packaged by Biosettia) and selected with puromycin (1 ug/ml). Cells survived selection were confirmed for A2A expression by RT-qPCR (RT Reagent: High-Capacity cDNA Reverse Transcription Kit, Applied Biosystems/Thermo Fisher Cat# 4368814, qPCR reagent: SYBR™ Green Master Mix, Applied Biosystems/Thermo Fisher Cat# 4309155). The cells were maintained in DMEM/F12 medium containing 10% FBS, 100 units/ml Penicillin, 100 μg/ml Streptomycin, and 1 μg/ml puromycin at 37° C., 5% CO2. 293A-A2AR cells were harvested on the day of assay and resuspended at 0.6 million cells/ml in DMEM/F12 with 0.1% BSA and 30 U/ml denosine deaminase(Roche, Cat #: 10102121001). Serial dilutions of compounds were prepared in DMEM/F12 with 0.1% BSA to a DMSO concentration of 0.6%. After 4 μl of compound dilutions were added, 4 μl suspended cells were dispensed into low-volume white 384-well plates (Greiner Bio-One). […] The assay plate was then incubated at room temperature for 30 min. 3 μl of d2 conjugated cAMP and 3 μl cryptate conjugated anti-cAMP antibody were then added. D2 conjugated cAMP and cryptate conjugated anti-cAMP antibody (Cisbio, Cat #: 62AM6PEC) were both prepared in cell lysis buffer according to the manufacturer's instruction. After 1 h incubation at room temperature, plates were read in CIARIOstar plate reader (BMG Labtech) using the HTRF detection mode.

Sequence of Adenosine A2A receptor (P29274 whole entry): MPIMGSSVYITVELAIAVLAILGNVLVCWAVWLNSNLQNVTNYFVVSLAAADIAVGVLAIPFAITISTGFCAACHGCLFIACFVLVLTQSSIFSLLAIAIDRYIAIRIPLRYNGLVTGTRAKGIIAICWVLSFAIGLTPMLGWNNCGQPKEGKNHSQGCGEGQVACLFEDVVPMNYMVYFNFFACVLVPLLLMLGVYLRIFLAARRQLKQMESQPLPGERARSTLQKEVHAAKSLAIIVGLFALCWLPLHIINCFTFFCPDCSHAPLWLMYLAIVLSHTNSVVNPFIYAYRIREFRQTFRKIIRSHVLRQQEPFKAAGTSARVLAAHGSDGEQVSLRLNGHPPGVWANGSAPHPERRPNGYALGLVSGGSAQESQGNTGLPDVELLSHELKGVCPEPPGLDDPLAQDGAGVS

SMILES	IC50 [nM]
Cc1cc(-c2c(OC[C@H]3CC[C@@H](C(=O)O)CC3)nc(N)nc2-c2ccc(F)cc2)cc(C(F)F)n1 [Example 278, (1,4-cis)-4-(((2-amino-5-(2-(difluoromethyl)-6-methylpyridin-4-yl)-6-(4-fluorophenyl)pyrimidin-4-yl)oxy)methyl)cyclohexane-1-carboxylic acid]	19900
Cc1cc(-c2c(OC[C@H]3CC[C@H](C(=O)O)CC3)nc(N)nc2-c2ccc(F)cc2)cc(C(F)F)n1 [Example 279, (1,4-trans)-4-(((2-amino-5-(2-(difluoromethyl)-6-methylpyridin-4-yl)-6-(4-fluorophenyl)pyrimidin-4-yl)oxy)methyl)cyclohexane-1-carboxylic acid]	> 25000
Cc1cc(-c2c(OCc3cccc(N4CCCC4)n3)nc(N)nc2-c2ccc(F)cc2)cc(C(F)F)n1 [Example 283, 5-(2-(difluoromethyl)-6-methylpyridin-4-yl)-4-(4-fluorophenyl)-6-((6-(pyrrolidin-1-yl)pyridin-2-yl)methoxy)pyrimidin-2-amine]	1170
CCc1nn(C[C@@H](O)CO)nc1COc1nc(N)nc(-c2ccc(F)cc2)c1-c1cc(C)nc(C(F)F)c1 [Example 288, (R)-3-(4-(((2-amino-5-(2-(difluoromethyl)-6-methylpyridin-4-yl)-6-(4-fluorophenyl)pyrimidin-4-yl)oxy)methyl)-5-ethyl-2H-1,2,3-triazol-2-yl)propane-1,2-diol]	2390
CCc1c(COc2nc(N)nc(-c3ccc(F)cc3)c2-c2cc(C)nc(C(F)F)c2)nnn1C[C@@H](O)CO [Example 289, (R)-3-(4-(((2-amino-5-(2-(difluoromethyl)-6-methylpyridin-4-yl)-6-(4-fluorophenyl)pyrimidin-4-yl)oxy)methyl)-5-ethyl-1H-1,2,3-triazol-1-yl)propane-1,2-diol]	2090
CCc1nnn(C[C@@H](O)CO)c1COc1nc(N)nc(-c2ccc(F)cc2)c1-c1cc(C)nc(C(F)F)c1 [Example 290]	1310
Cc1cc(-c2c(OCc3nnn(CC(C)(C)O)n3)nc(N)nc2-c2ccc(F)cc2)cc(C(F)F)n1 [Example 291, 1-(5-(((2-amino-5-(2-(difluoromethyl)-6-methylpyridin-4-yl)-6-(4-fluorophenyl)pyrimidin-4-yl)oxy)methyl)-2H-tetrazol-2-yl)-2-methylpropan-2-ol]	5490
Cc1cc(-c2c(OCc3nnnn3CC(C)(C)O)nc(N)nc2-c2ccc(F)cc2)cc(C(F)F)n1 [Example 292, 1-(5-(((2-amino-5-(2-(difluoromethyl)-6-methylpyridin-4-yl)-6-(4-fluorophenyl)pyrimidin-4-yl)oxy)methyl)-1H-tetrazol-1-yl)-2-methylpropan-2-ol]	708
Cc1cc(-c2c(OCc3cccc(N4CC(C(=O)O)C4)n3)nc(N)nc2-c2ccc(F)cc2)cc(C(F)F)n1 [Example 293, 1-(6-(((2-amino-5-(2-(difluoromethyl)-6-methylpyridin-4-yl)-6-(4-fluorophenyl)pyrimidin-4-yl)oxy)methyl)pyridin-2-yl)azetidine-3-carboxylic acid]	4350
Cc1cc(-c2c(OCc3cccc(N4CCC[C@@H]4C(=O)O)n3)nc(N)nc2-c2ccc(F)cc2)cc(C(F)F)n1 [Example 294, (6-(((2-amino-5-(2-(difluoromethyl)-6-methylpyridin-4-yl)-6-(4-fluorophenyl)pyrimidin-4-yl)oxy)methyl)pyridin-2-yl)-D-proline]	19700
Cc1cc(-c2c(OCc3cccc(C(C)(C)OCC(=O)O)n3)nc(N)nc2-c2ccc(F)cc2)cc(C(F)F)n1 [Example 296, 2-((2-(6-(((2-amino-5-(2-(difluoromethyl)-6-methylpyridin-4-yl)-6-(4-fluorophenyl)pyrimidin-4-yl)oxy)methyl)pyridin-2-yl)propan-2-yl)oxy)acetic acid]	3630
Cc1cc(-c2c(-c3ccc(F)cc3)nc(N)nc2-c2cn(Cc3cccc(C(C)(C)O)n3)nn2)cc(C(F)F)n1 [Example 298, 2-(6-((4-(2-amino-5-(2-(difluoromethyl)-6-methylpyridin-4-yl)-6-(4-fluorophenyl)pyrimidin-4-yl)-1H-1,2,3-triazol-1-yl)methyl)pyridin-2-yl)propan-2-ol]	> 10000
CCc1nn(CC(C)(C)C(=O)O)nc1COc1nc(N)nc(-c2ccc(F)cc2)c1-c1cc(C)nc(C(F)F)c1 [Example 300, 3-(4-(((2-amino-5-(2-(difluoromethyl)-6-methylpyridin-4-yl)-6-(4-fluorophenyl)pyrimidin-4-yl)oxy)methyl)-5-ethyl-2H-1,2,3-triazol-2-yl)-2,2-dimethylpropanoic acid]	> 10000
CCc1nnn(CC(C)(C)C(=O)O)c1COc1nc(N)nc(-c2ccc(F)cc2)c1-c1cc(C)nc(C(F)F)c1 [Example 301, 3-(5-(((2-amino-5-(2-(difluoromethyl)-6-methylpyridin-4-yl)-6-(4-fluorophenyl)pyrimidin-4-yl)oxy)methyl)-4-ethyl-1H-1,2,3-triazol-1-yl)-2,2-dimethylpropanoic acid]	> 10000
CCc1c(COc2nc(N)nc(-c3ccc(F)cc3)c2-c2cc(C)nc(C(F)F)c2)nnn1CC(C)(C)C(=O)O [Example 302, 3-(4-(((2-amino-5-(2-(difluoromethyl)-6-methylpyridin-4-yl)-6-(4-fluorophenyl)pyrimidin-4-yl)oxy)methyl)-5-ethyl-1H-1,2,3-triazol-1-yl)-2,2-dimethylpropanoic acid]	> 10000

Now from value to compound:

IC50 [nM]	SMILES
5800	Cc1cc(-c2c(OCc3ccn(C)c(=O)c3)nc(N)nc2-c2ccc(F)cc2)cc(C(F)F)n1 [Example 280, 4-(((2-amino-5-(2-(difluoromethyl)-6-methylpyridin-4-yl)-6-(4-fluorophenyl)pyrimidin-4-yl)oxy)methyl)-1-methylpyridin-2(1H)-one]
609	COCC(O)c1cccc(COc2nc(N)nc(-c3ccc(F)cc3)c2-c2cc(C)nc(C(F)F)c2)n1 (stereo not drawn) [Example 281, 1-(6-(((2-amino-5-(2-(difluoromethyl)-6-methylpyridin-4-yl)-6-(4-fluorophenyl)pyrimidin-4-yl)oxy)methyl)pyridin-2-yl)-2-methoxyethan-1-ol]
1800	Cc1cc(-c2c(OCc3ccncc3)nc(N)nc2-c2ccc(F)cc2)cc(C(F)F)n1 [Example 286, 5-(2-(difluoromethyl)-6-methylpyridin-4-yl)-4-(4-fluorophenyl)-6-(pyridin-4-ylmethoxy)pyrimidin-2-amine]
835	Cc1cc(-c2c(OCc3ccnc(C(C)(C)O)c3)nc(N)nc2-c2ccc(F)cc2)cc(C(F)F)n1 [Example 287, 2-(4-(((2-amino-5-(2-(difluoromethyl)-6-methylpyridin-4-yl)-6-(4-fluorophenyl)pyrimidin-4-yl)oxy)methyl)pyridin-2-yl)propan-2-ol]
1110	Cc1cc(-c2c(OCCc3cccnc3)nc(N)nc2-c2ccc(F)cc2)cc(C(F)F)n1 [Example 299, 5-(2-(difluoromethyl)-6-methylpyridin-4-yl)-4-(4-fluorophenyl)-6-(2-(pyridin-3-yl)ethoxy)pyrimidin-2-amine]
965	Cc1cc(-c2c(OCc3cccc(C(O)CO)n3)nc(N)nc2-c2ccc(F)cc2)cc(C(F)F)n1 (stereo not drawn) [Example 303, 1-(6-(((2-amino-5-(2-(difluoromethyl)-6-methylpyridin-4-yl)-6-(4-fluorophenyl)pyrimidin-4-yl)oxy)methyl)pyridin-2-yl)ethane-1,2-diol]

— US20210355104A1, “ADENOSINE RECEPTOR BINDING COMPOUNDS” (Nikang Therapeuticsm Inc., priority 2018, published 2021)
